Patent US10899776B2, “Antiviral and antibacteria agents based on quaternary ammonium compound complexed with boric acid and its derivatives” (B-Organic Films Corp, priority 2015, dated 2021)
Values joined by “and” are separate entries in the source; they are usually repeats but may differ in a detail not shown here. Identical values can stand only once.

What was measured:
[1] = tested on: SOD; settings: RT q-PCR, treated vs non-treated shrimp; feed 5 mg/g
Experimental: (§1) Primer design is performed in the online application «primer3plus» (Untergasser, A., Nijveen, H., Rao, W., Bisseling, T., Geurts, R., Leunissen, J. A. M. 2007, Nucleic Acids Research, 35: 71-74) based in the following features: 18-24 nt length; GC content 35-65% product size 80-250 bp; and ≤2 GC clamp (Wang, X. and Seed, B., 2007). The primers are evaluated in the online application «Oligo Evaluator» Sigma Aldrich™ (St' Louis, Mo.) to check thermodynamic characteristics based in self-aligned primer and primer-dimer structures. The primers selected are ≤−2 Kcal/mol and evaluated using an in silico PCR software «Primer Digital» (Kalender et al., 2011). RNA extracts used for the microarray hybridizations are converted to cDNA using promega GoScript™ Reverse Transcription System (Promega Corporation, Madison, Wis., USA) and SsoFast™ EvaGreen® Supermix (Bio-Rad, Hercules, Calif., USA) for RT-qPCR.

[2] = tested on: Toll-Like Receptor; settings: RT q-PCR, treated vs non-treated shrimp; feed 5 mg/g
Experimental: as §1

[3] = tested on: Vibrio parahaemolyticus CAIM 170; settings: V. parahaemolyticus 1×10^6 cfu/mL, after 96 h; dose 5 mg/g of feed; untreated infected about 30%

C[N+](C)(C)CCOB1OB2OB(O1)OB1OB(O2)O1.[Cl-] [choline/pentaborate complex]
increase of expression of SOD gene [1]: more than 200 fold | increase of expression of Toll-Like Receptor gene [2]: more than 200 fold | survival [3]: > 80% and 84%
